Reference: patent EP0348509B1, “ANTI-RETROVIRAL DRUG” (TSUMURA & CO., priority 1987, dated 1989)
Values after ≈ are worked out from the molar mass of the structure shown.

Legend:
HIV = assay: Inhibition of modification of HIV-infected MT-2 cells (living cell count after 1 week); type: cell-based; conditions: 5 µg/ml added; MT-2 cells infected with HIV; living cells counted after 1 week
Experimental: MT-2 cells were cultured at a concentration of 3 x 10⁴ cells/ml in a culture medium of RPMI 1640 (supplied by Gibco Co.) containing 10% FCS (supplied by Gibco Co.). After 2 days, the MT-2 cells were infected with HIV at a ratio of 200 cells per HIV, were distributed into groups to which 5 µg/ml of baicalein, quercetin or hesperetin was added and non-added groups (control groups), and the effect of the addition was determined.

[1] = test system: male rats of the Wistar line; assay: Acute toxicity by oral administration, rats; type: in vivo; conditions: dose of 1 g/kg
[2] = test system: male mice of the ddY line; assay: Acute toxicity by oral administration, mice; type: in vivo; conditions: dose of 1 g/kg
Reverse transcriptase = assay: Inhibition of reverse transcriptase activity ([3H]dTTP incorporation into acid-insoluble fraction)
Experimental: OF TOKYO PRESS TOKYO/KARGER, BASEL, pp. 603-605 (1975)], and then a reaction mixture liquid having the following composition was prepared.
By "1 unit" is meant the unit of the relative activity of the reverse transcriptase required to consume 1 nmol of dNTP (deoxynucleic acid phosphate at 37°C for 1 hour.
Then the dry extract powder obtained in the above-mentioned Specific Example, baicalein, baicalin, quercetin or hesperetin and refined water were added to 20 ml of the above-mentioned reaction mixture liquid so that the total volume was 50 µl, the incorporation of the radioactivity of [³H]dTTP into the acid-insoluble fraction was measured by a Beckmann scintillation counter, and the percent inhibition was calculated as the reverse transcriptase activity with respect to each concentration.

RSV. SR-A strain = assay: Focus formation by RSV in primary chicken embryo fibroblasts; type: cell-based; conditions: Rous sarcoma virus, Fibroblast, 192 h, number of foci, 8 days, read-out: IC₅₀
Experimental: A 24-well microplate was charged with 3.5 x 10⁵ cells per well of primary chicken embryo fibroblasts, and the fibroblasts were cultured at 37°C in an atmospher of 5% CO₂ for 6 hours. Then an RSV. SR-A strain having an infection multiplicity (M.O.I.) of about 2.0 x 10⁻⁴ and the test substance were added, and culturing was continued for further 2 hours. The cells were washed and the test substance and an agar culture medium were added, and then culturing was continued at 37°C in an atmospher of 5% CO₂ for further 8 days. The number of foci was counted, and the results are shown as IC₅₀ in Table 6.

[3] = intravenous administration; species not given; cited from earlier work
HTLV-1 = HTLV-1 production by MT-2 cells (RNA hybridization with 32P-labelled HTLV-1 cDNA); type: cell-based; conditions: 4 days, compared with control
Experimental: The test substance and 1 x 10⁵ cells per well of MT-2 cells were charged in a 24-well microplate, and culturing was conducted for 4 days. Then the MT-2 cell suspension in each well was subjected to centrifugal separation, and the supernatant was extracted with phenol to obtain RNA of HTLV-1. This RNA and a known amount of HTLV-1 cDNA were plotted on a nitrocellulose paper, a comparative determination was carried out according to the hybridization using ³²P-labelled HTLV-1 cDNA, and the hydridization rate by the test substance was calculated by comparing the amount of the produced virus with that of the control.
The results are shown as the hybridization rate (%) in Table 7.

| SMILES | modification of MT-2 cells with HIV was inhibited at a ratio (HIV) | acute toxicity (death) [1] | acute toxicity (death) [2] | Percent inhibition (%) (Reverse transcriptase; concentration 1 µg/ml) | Percent inhibition (%) (Reverse transcriptase; concentration 2 µg/ml) | Percent inhibition (%) (Reverse transcriptase; concentration 5 µg/ml) | Percent inhibition (%) (Reverse transcriptase; concentration 10 µg/ml) | Percent inhibition (%) (Reverse transcriptase; concentration 20 µg/ml) | other results |
| --- | --- | --- | --- | --- | --- | --- | --- | --- | --- |
| COc1ccc([C@@H]2CC(=O)c3c(O)cc(O)cc3O2)cc1O [hesperetin] | at least 90% | no animal died | no animal died | 99 | 100 | 100 | 100 | 100 | Percent inhibition (%) (Reverse transcriptase; concentration 50 µg/ml): 100% |
| O=C(O)[C@H]1O[C@@H](Oc2cc3oc(-c4ccccc4)cc(=O)c3c(O)c2O)[C@H](O)[C@@H](O)[C@@H]1O [baicalin] | – | no animal died | no animal died | 19 | 27 | 73 | 90 | 100 | – |
| O=C(O)CN(CC(=O)O)Cc1cc2c(c(O)c1O)C(=O)c1ccccc1C2=O [alizarin complexon] | – | – | – | – | – | – | – | – | IC50 (RSV. SR-A strain): 4.3 µg/mL |
| O=C1c2ccccc2C(=O)c2c1ccc(O)c2O [alizarin, 1,2-dihydroxyanthraquinone] | – | – | – | – | – | – | – | – | LD₅₀ [3]: 120 mg/kg |
| O=c1cc(-c2ccccc2)oc2cc(O)c(O)c(O)c12 [baicalein] | at least 90% | no animal died | no animal died | 92 | 98 | 100 | 100 | 100 | Percent inhibition (%) (Reverse transcriptase; concentration 0.1 µg/ml): 29%; Percent inhibition (%) (Reverse transcriptase; concentration 0.2 µg/ml): 35%; Percent inhibition (%) (Reverse transcriptase; concentration 0.5 µg/ml): 74% |
| O=c1c(O)c(-c2ccc(O)c(O)c2)oc2cc(O)cc(O)c12 [quercetin] | at least 90% | no animal died | no animal died | 77 | 96 | 99 | 100 | 100 | Percent inhibition (%) (Reverse transcriptase; concentration 50 µg/ml): 100% |
| O=C1c2ccccc2C(=O)c2c1cc(S(=O)(=O)O)c(O)c2O [Alizarine Red S] | – | – | – | – | – | – | – | – | IC50 (RSV. SR-A strain): 2.1 µg/mL (≈ 6.56 µM); Hybridization Rate (%) (HTLV-1; Amount Added 20 µg/ml): 61.7%; LD₅₀ [3]: 70 mg/kg |
| O=C1c2ccccc2C(=O)c2c(O)c(O)cc(O)c21 [purpurin] | – | – | – | – | – | – | – | – | Hybridization Rate (%) (HTLV-1; Amount Added 5 µg/ml): 61.3% |
